Experimental data as given in US12441732B2, “Potassium salt crystal form B of phosphodiesterase type 5 inhibitor, and preparation method and use therefor” (Guangzhou Huazhen Pharmaceutical Co., Ltd, priority 2019, dated 2025).
Like-named read-outs stand apart in the source and are kept apart here.

Assays:
[1] = Dynamic vapor sorption (DVS) hygroscopicity test; format: physicochemical
Protocol: Dynamic vapor adsorption (DVS) experiments were performed at 25° C. on a DVS Intrinsic instrument from SMS (Surface Measurement Systems) to test hygroscopicity of the potassium salt anhydrous crystal form B prepared in Embodiment 1. The test sample was first dried at 0% relative humidity (RH) to remove the adsorbed solvent or water, and then the test was started with a target RH of 0-95%.

[2] = Dynamic solubility test in water, SGF, FaSSIF, FeSSIF at 37° C.; format: physicochemical; details: for solubility at 1 h / solubility at 4 h / solubility at 24 h: read-out: solubility (S)
[3] = Pharmacokinetic experiment in rats after gavage; format: in vivo; details: male SD rats, gavage 2 mg·kg^−1
Protocol: After 6 healthy male SD rats were fasted and drank water freely for 12 h, the rats was administered by gavage with the potassium salt crystal form B prepared in Embodiment 1 at 2 mg·kg^−1, and blood was taken from the Bulbus oculi venous plexus at 0.2 h, 0.5 h, 1 h, 1.5 h, 2 h, 4 h, 6 h and 8 h after administration. A solution of acetonitrile:water (1:1) was added, and centrifuging was conducted to take the supernatant for chromatographic analysis, at conditions: a chromatographic column: Thermo Fisher Hypersil gold column (3 μm, 20 mm×2.1 mm), an injection volume of 10 μL, a flow rate of 0.3 mL/min, a column temperature of 40° C., a mobile phase of water (1% formic acid) and methanol, gradient elution: methanol 10% (0 min); 10% (1 min); 90% (4 min); 90% (8 min); 10% (9 min), and with mass spectrometry conditions: multiple reaction monitoring (MRM), electrospray ionization (ESI), retention time (Dwell Time) of 200 ms, detection ion m/z 448.0-347.8. The data of blood drug concentration was analyzed with Winnolin6.3 software to obtain the pharmacokinetic parameters, thereby forming the mean blood drug concentration-time curve, as shown in FIG. 19.

[4] = tested on: PAH rats; test: Penile erectile function observation in PAH rats; format: in vivo, SD rats
Protocol: After gavage treatment, penile erection in the animals was observed, wherein the time of penile erection phenomenon after gavage was recorded in each group.

[5] = tested on: IPF rats; test: Bleomycin-induced idiopathic pulmonary fibrosis (IPF) rats; format: in vivo, SD rats; details: 23 days; for Fibrosis area / Fibrosis score (Ashcroft) / Percentage of score (%) (≤3) / Percentage of score (%) (≥4): left lung
Protocol: The animals were purchased, and modeling was started after 3-7 days of acclimatization. The animals were weighed and anesthetized by inhalation with isoflurane. After the animals were confirmed to be anesthetized, the neck was disinfected, and the skin of the neck was cut. The main trachea was exposed by bluntly dissecting the muscle, a small incision was made between the tracheal rings, into which a PE-20 tube was inserted until the left main bronchus, and bleomycin was injected directly (dose: 3 mg/kg, volume: 1.0 ml/kg). The trachea and skin were sutured. After the surgery, the animals were kept warm at 37° C. under an electric blanket until the animals were fully awake and confirmed to be able to feed and drink freely before returning the animals to their normal feeding cages.
50 mg/kg Nintedanib group (BIBF-50 mg/kg): BIBF was prepared into a solution of 10 mg/ml with 0.5% sodium carboxymethyl cellulose and administered by gavage at a dose of 50 mg/kg^−1·d^−1;
Each group of rats was administered by gavage on the day of modeling, once a day for 23 days in total.
After 23 days of continuous administration, all animals in each group were euthanized by intraperitoneal injection of pentobarbital sodium anesthetic (100 mg/kg) in accordance with the KCl standard operating procedure for animal euthanasia. Whole-body perfusion was performed by low-temperature PBS, and then fixation was performed by whole-body formalin perfusion. The left lung was taken and perfused with an equal amount of formalin fluid for weighing and subsequent lung pathology-related tests.
Left lung gross pathological examination: after perfusion with an equal amount of formalin, the wet weight of the left lung after the perfusion was weighed and recorded with a microbalance; the volume of the left lung after perfusion was measured and recorded using a toe volume measuring instrument.
The whole lung of the left lung was dehydrated according to the KCl pathology standard SOPs, and paraffin blocks were prepared. The whole lung of the left lung was paraffin-sectioned at a thickness of 3-4 μm. HE staining and Masson Trichrome staining were performed according to the KCl pathology standard staining SOPs, and the slice panoramic scanning was carried out by a Hamamatsu NanoZoomer Digital Pathology (S210) slice scanner. The lung lesion area was calculated by Masson Trichrome staining of the sections, and the left lung fibrosis area (%) was the percentage of fibrosis area in the left lung area; 10 randomly selected fields of view of 1 mm^2 in the lesion area were semi-quantitatively scored by the pathologist under double-blind conditions according to the Ashcroft scoring system (as shown in Table 8 and FIG. 40).

[6] = tested on: UUO model mice; test: Unilateral ureteral obstruction mouse model (UUO model) of renal fibrosis; format: in vivo, C57BL/6 mice; details: 5 mg·kg^−1·d^−1 gavage, 7 days
From the text: Fifteen male C57BL/6 mice were adaptively fed for one week and randomly divided into two groups: a Sham group (a sham-operation group) including 5 mice and a surgical modeling group including 10 mice. Surgical method: the abdominal cavities of the mice in the sham-operation group were opened under anesthesia to free the left ureter without ligation, and then their abdomens were closed and sutured; the left ureters of the mice in the modeling group were ligated under anesthesia. The mice in the modeling group were further randomly divided into two groups: a UUO group (a model group) and a treatment group of the potassium salt crystal form B of WYQ (5 mg/kg), 5 mice in each group.
The first gavage administration was started 2 hours after the operation.
(2) treatment group of the potassium salt crystal form B of WYQ: the potassium salt crystal form B of WYQ was diluted into a 1 mg/ml solution with normal saline and administered by gavage at the dose of 5 mg·kg^−1·d^−1; and
administered once a day for consecutive 7 days.
After 7 days of drug administration, all the mice were sacrificed. The abdominal cavity was opened and the left and right kidney tissues were peeled off, caring to maintain the integrity of the kidneys. The kidneys were taken out and quickly transferred to pre-cooled PBS, and the kidneys were cut for different assays. The kidney was divided into four parts with a scalpel, and the dorsal side of the kidney was fixed in 4% paraformaldehyde for making paraffin sections. Morphological changes of kidney tissues were observed by HE staining and Masson staining, and changes of expression of fibrosis marker proteins in kidney tissues were observed by immunohistochemistry.

[7] = 10 mg/kg, listed as CPD-1, 10 mg/kg
[8] = 10 mg/kg, listed as potassium salt crystal form B of WYQ

## CCCCOC(=O)[N-]S(=O)(=O)c1cccc(-c2nc3c(CCC)nn(C)c3c(=O)[nH]2)c1.[K+] [potassium salt crystal form B]
[1]; DVS 0-95% RH, 25° C.
  crystal form before and after the DVS test (XRPD): did not change
[1]; DVS, 25° C./80% RH
  change in mass (water adsorption amount): 0.6%
  hygroscopicity: slight hygroscopicity
[2]; FaSSIF, 1 h
  crystal form change after XRPD assay (FC): yes
  pH: 6.8
[2]; FaSSIF, 4 h
  crystal form change after XRPD assay (FC): yes
  pH: 6.8
[2]; FaSSIF, 24 h
  crystal form change after XRPD assay (FC): yes
  pH: 6.8
[2]; FeSSIF, 1 h
  crystal form change after XRPD assay (FC): yes
  pH: 5.5
[2]; FeSSIF, 4 h
  crystal form change after XRPD assay (FC): yes
  pH: 5.5
[2]; FeSSIF, 24 h
  crystal form change after XRPD assay (FC): yes
  pH: 5.5
[2]; SGF, 1 h
  crystal form change after XRPD assay (FC): yes
  pH: 7.5
[2]; SGF, 4 h
  crystal form change after XRPD assay (FC): yes
  pH: 7.3
[2]; SGF, 24 h
  crystal form change after XRPD assay (FC): yes
  pH: 7.7
[2]; fasted-state simulated intestinal fluid (FaSSIF), thermodynamic from solid, FaSSIF, 1 h
  solubility at 1 h: 10700 µg/mL
[2]; fasted-state simulated intestinal fluid (FaSSIF), thermodynamic from solid, FaSSIF, 4 h
  solubility at 4 h: 9500 µg/mL
[2]; fasted-state simulated intestinal fluid (FaSSIF), thermodynamic from solid, FaSSIF, 24 h
  solubility at 24 h: 9800 µg/mL
[2]; fed-state simulated intestinal fluid (FeSSIF), thermodynamic from solid, FeSSIF, 1 h
  solubility at 1 h: 400 µg/mL
[2]; fed-state simulated intestinal fluid (FeSSIF), thermodynamic from solid, FeSSIF, 4 h
  solubility at 4 h: 430 µg/mL
[2]; fed-state simulated intestinal fluid (FeSSIF), thermodynamic from solid, FeSSIF, 24 h
  solubility at 24 h: 430 µg/mL
[2]; simulated gastric fluid (SGF), simulated gastric fluid, thermodynamic from solid, SGF, 1 h
  solubility at 1 h: 6800 µg/mL
[2]; simulated gastric fluid (SGF), simulated gastric fluid, thermodynamic from solid, SGF, 4 h
  solubility at 4 h: 7000 µg/mL
[2]; simulated gastric fluid (SGF), simulated gastric fluid, thermodynamic from solid, SGF, 24 h
  solubility at 24 h: 7700 µg/mL
[2]; thermodynamic from solid, water, 1 h
  solubility at 1 h: 12500 µg/mL
[2]; thermodynamic from solid, water, 4 h
  solubility at 4 h: 13100 µg/mL
[2]; thermodynamic from solid, water, 24 h
  solubility at 24 h: 12900 µg/mL
[2]; thermodynamic from solid, water, read-out: solubility in water (the highest)
  solubility: ≤ 12.9 mg/mL
[2]; water, 1 h
  crystal form change after XRPD assay (FC): weak
  pH: 7.6
[2]; water, 4 h
  crystal form change after XRPD assay (FC): weak
  pH: 7.4
[2]; water, 24 h
  crystal form change after XRPD assay (FC): weak
  pH: 7.4
[3]
  time at which the peak drug concentration was reached: 0.63 ± 0.12 h
[3]; rat, blood, po, read-out: AUC(0-4) within 8 h after administration
  AUC(0-t): 639 ± 72.4 ng·h/mL
[3]; rat, blood, po, read-out: maximum drug concentration (Cmax)
  Cmax: 334 ± 23.7 ng/mL
[3]; rat, blood, po, read-out: oral half-life (t112) (converted)
  half-life: 138 ± 16.2 min
[3]; rat, blood, po, read-out: total area under the mean blood drug concentration-time curve AUC0-∞
  AUC(0-inf): 650 ± 70.8 ng·h/mL
[4]; high-dose 20 mg·kg^−1d^−1, over 40 min after gavage
  rats showing penile erection: 80%
[4]; low-dose 5 mg·kg^−1d^−1, over 1 h after gavage
  rats showing penile erection: 50%
[4]; medium-dose 10 mg·kg^−1d^−1, over 1 h after gavage
  rats showing penile erection: 80%
[4]; mini-dose 2 mg·kg^−1d^−1, over 1 h after gavage
  rats showing penile erection: 30%
[5]; 2.5 mg/kg gavage once a day
  Left lung volume: 1779.9 ± 105.76 mm^3
  Left lung weight: 1.59 ± 0.10 g
[5]; 2.5 mg/kg
  alveolar tissue structure in left lung pulmonary fibrosis lesions (HE staining): some of the alveolar structures in the fibrotic lesions were damaged
  alveolar tissue structure in left lung pulmonary fibrosis lesions (Masson Trichrom staining): some of the alveolar structures in the fibrotic lesions were preserved
  Fibrosis area: 51.99 ± 3.21%
  Fibrosis score (Ashcroft): 3.21 ± 0.30
  Percentage of score (%) (≤3): 53.75 ± 9.81%
  Percentage of score (%) (≥4): 46.25 ± 9.81%
[5]; 10 mg/kg gavage once a day
  Left lung volume: 1604.5 ± 153.72 mm^3
  Left lung weight: 1.47 ± 0.16 g
[5]; 10 mg/kg
  alveolar tissue structure in left lung pulmonary fibrosis lesions (HE staining): the alveolar structures in the fibrotic lesions were preserved
  alveolar tissue structure in left lung pulmonary fibrosis lesions (Masson Trichrom staining): most of the alveolar structures in the fibrotic lesions were preserved
  Fibrosis area: 53.42 ± 4.44%
  Percentage of score (%) (≤3): 71.25 ± 10.08%
[5]; 10 mg/kg, HE staining
  smooth muscle proliferation and inflammatory cell infiltration in bronchioles and pulmonary arterioles of left lung fibrosis lesions vs model group: better effects
[5]; different doses, H&E and Masson Trichrom staining
  left lung pulmonary fibrosis lesions and lesion range vs the model group: no significant difference
[5]; [7]
  Fibrosis score (Ashcroft): 2.69 ± 0.31
  Percentage of score (%) (≥4): 28.75 ± 10.08%
[5]; [8]
  Fibrosis score (Ashcroft): significantly inhibit
  Percentage of score (%) (≥4): significantly reduced
[6]
  FN1 protein expression level in kidney tissue (immunohistochemistry): significantly reduced
  fibrosis area in the renal fibrosis lesions vs UUO model group: significantly decrease
  proliferation of renal interstitial collagen fibers: reduced
[6]; HE staining
  inflammatory cell infiltration in the kidney: significantly reduced
